For 15 molecules, EC50 and IC50 results are on record in patent US10934297B2, “5-heteroaryl substituted indazole-3-carboxamides and preparation and use thereof” (Samumed, LLC, priority 2018, dated 2021).

The subject of experiment [1] is Wnt activity (Sp5-Luc reporter in SW480 cells). The experiment is described as follows: Screening assay for Wnt activity: Sp5-Luc reporter gene assay in SW480 colon carcinoma cells. The following applies: Homo sapiens, 36 to 48 hours. It is filed as cell-based, human. An excerpt: The screening assay for Wnt activity is described as follows. Reporter cell lines can be generated by stably transducing cancer cell lines (e.g., colon cancer) or primary cells (e.g., IEC-6 intestinal cells) with a lentiviral construct that includes a Wnt-responsive promoter driving expression of the firefly luciferase gene.
SW480 colon carcinoma cells were transduced with a lentiviral vector expressing luciferase with a human Sp5 promoter consisting of a sequence of eight TCF/LEF binding sites. SW480 cells stably expressing the Sp5-Luc reporter gene and a hygromycin resistance gene were selected by treatment with 150 μg/mL of hygromycin for 7 days. These stably transduced SW480 cells were expanded in cell culture and used for all further screening activities. […] For Sp5-Luc reporter gene assays, the cells were plated at 4,000 cells/well in 384-well plates with a DMEM medium containing 1% fetal bovine serum, and 1% Penicillin-Streptomycin and incubated for 36 to 48 hours at 37° C. and 5% CO2. Following incubation, 15 μl of BriteLite Plus luminescence reagent (Perkin Elmer) was added to each well of the 384-well assay plates. The plates were placed on an orbital shaker for 2 min and then luminescence was quantified using the Envision (Perkin Elmer) plate reader. Readings were normalized to DMSO only treated cells, and normalized activities were utilized for EC50 calculations using the dose-response log (inhibitor) vs. response-variable slope (four parameters) nonlinear regression feature available in GraphPad Prism 5.0 (or Dotmatics).
(A reporter such as luciferase makes a cellular process visible.)

For the next experiment, the target named is DYRK1A kinase (Homo sapiens (Human), UniProt Q13627). The experiment is described as follows: DYRK1A kinase assay (Ser/Thr 18 peptide Z-lyte FRET). It is filed as biochemical. The following applies: read-out: EC50 (method: IC50). How it is done:
Representative compounds were screened using the assay procedure for DYRK1A kinase activity as described below.
This is a non-radioactive assay using fluorescence resonance energy transfer (FRET) between coumarin and fluorescein to detect kinase activity which is represented as a ratio of coumarin emission/fluorescein emission.
The mixture was allowed to incubate with the representative compounds for one hour at room temperature. All reactions were performed in duplicate. Unphosphorylated (“0% Control”) and phosphorylated (“100% control”) forms of Ser/Thr 18 served as control reactions. Additionally, an 11-point dose-response curve of Staurosporine (1 uM top) was run to serve as a positive compound control.
After incubation, Development Reagent A was diluted in Development Buffer then added to the reaction and allowed to further incubate for one hour at room temperature.

The next experiment deals with GSK3β kinase (Homo sapiens (Human), UniProt P49841). The experiment is described as follows: GSK3β kinase assay (Ser/Thr 09 peptide Z-lyte FRET). The following applies: read-out: EC50 (method: IC50). It is filed as biochemical. The protocol:
Representative compounds were screened using the assay procedure for GSK3β kinase activity as described below.
This is a non-radioactive assay using fluorescence resonance energy transfer (FRET) between coumarin and fluorescein to detect kinase activity which is represented as ratio of coumarin emission/fluorescein emission.
The mixture is allowed to incubate with the representative compounds for one hour at room temperature. All reactions were performed in duplicate. Unphosphorylated (“0% Control”) and phosphorylated (“100% control”) forms of Ser/Thr 18 serve as control reactions.
After incubation, diluted Development Buffer is added to the reaction and allowed to further incubate for one hour at room temperature.
Dose-response curves are generated and inhibitory concentration (IC50) values are calculated using non-linear regression curve fit in the Dotmatics' Studies Software (Bishops Stortford, UK).

Experiment [2] relates to SW480 colon carcinoma cells. Description: Cell viability assay (CellTiter-Glo) in SW480 colon carcinoma cells. It is filed as cell-based, human. The conditions noted are these: Homo sapiens, 96 h, four days. The protocol:
Representative compounds were screened using the assay procedure to assess the effect on cell viability as described below.
SW480 colon carcinoma cells were transduced with a lentiviral vector expressing luciferase with a human Sp5 promoter consisting of a sequence of eight TCF/LEF binding sites. SW480 cells stably expressing the Sp5-Luc reporter gene and a hygromycin resistance gene were selected by treatment with 150 μg/mL of hygromycin for 7 days. These stably transduced SW480 cells were expanded in cell culture and used for all further screening activities.
For the Cell Viability Assays, the cells were plated at 2,000 cells/well in 384-well plates with a DMEM medium containing 1% fetal bovine serum, and 1% Penicillin-Streptomycin and incubated for […] at 37° C. and 5% CO2. Eight replicates of DMSO-treated cells served as controls and cells treated with compound were performed in duplicate.
After incubation, 10 μL of CellTiter-Glo (Promega) was added to each well allowed to incubate for approximately 12 minutes. This reagent “results in cell lysis and generation of a luminescent signal proportional to the amount of ATP present. The amount of ATP is directly proportional to the number of cells present in culture, in agreement with previous reports. The CellTiter-Glo® Assay generates a “glow-type” luminescent signal, produced by the luciferase reaction (Promega.com)”.
A general note: ATP-based viability assays read luminescence as a measure of living cells.

Experiment [3] deals with primary human fibroblasts derived from IPF patients (LL29 cells). Description: Inhibition of the fibrotic process: αSMA staining in TGF-β1 treated LL29 fibroblasts. It is filed as cell-based. The following applies: Homo sapiens, Fibroblast, 96 h; LL29 cells, TGF-β1 20 ng/mL, 4 days, % αSMA positive cells. How it is done:
Representative compounds were screened using primary human fibroblasts (derived from IPF patients) treated with TGF-β1 to determine their ability to inhibit the fibrotic process.
LL29 cells were plated at 1,500 cells/well in 70 μL/well F12 medium supplemented with 1% Fetal Bovine Serum. […] Wells treated with TGF-β1 and containing DMSO were used as positive control, and cells with only DMSO were negative control. […] Following incubation for 4 days, SYTOX green nucleic acid stain (Life Technologies [Thermo Fisher Scientific]) was added to the wells at a final concentration of 1 μM and incubated at room temperature for 30 min.

GSK3β kinase, sequence (P49841 whole entry): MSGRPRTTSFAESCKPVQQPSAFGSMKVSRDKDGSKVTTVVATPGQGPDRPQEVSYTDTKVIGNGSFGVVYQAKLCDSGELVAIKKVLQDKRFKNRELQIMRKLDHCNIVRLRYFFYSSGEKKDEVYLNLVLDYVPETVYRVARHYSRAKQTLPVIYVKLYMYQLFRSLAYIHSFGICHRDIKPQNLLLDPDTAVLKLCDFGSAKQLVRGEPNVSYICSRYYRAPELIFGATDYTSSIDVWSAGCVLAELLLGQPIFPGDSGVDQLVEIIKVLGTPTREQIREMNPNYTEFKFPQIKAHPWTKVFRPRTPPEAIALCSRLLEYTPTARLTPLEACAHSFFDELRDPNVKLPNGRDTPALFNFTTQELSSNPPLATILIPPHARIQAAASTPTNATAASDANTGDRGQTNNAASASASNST

What is called EC50 is the midpoint of the concentration-response curve. Broadly, the IC50 is the point on the concentration scale where inhibition reaches its midpoint. As to `Cn1cc(-c2cc(Cl)c3[nH]nc(C(=O)NC4CCC(F)(F)CC4)c3c2)cn1` [Compound 17, 7-Chloro-N-(4,4-difluorocyclohexyl)-5-(1-methyl-1H-pyrazol-4-yl)-1H-indazole-3-carboxamide], the results for the EC50 in experiment [1], in experiment [2] and in experiment [3] were more than 10 µM, more than 10 µM and 1.2 µM, respectively. In addition, the IC50 at DYRK1A kinase and on GSK3β kinase was more than 10 µM throughout.

As for `CC(C)(C)n1cc(-c2ccc3[nH]nc(C(=O)N[C@H]4CC[C@H](CN5CC(F)C5)CC4)c3c2)cn1` [Compound 25, 5-(1-(tert-Butyl)-1H-pyrazol-4-yl)-N-((1R,4R)-4-((3-fluoroazetidin-1-yl)methyl)cyclohexyl)-1H-indazole-3-carboxamide], the EC50 is more than 10 µM in experiment [1], 6.02 µM in experiment [2] and 1.89 µM in experiment [3]. Further, the values for the IC50 at DYRK1A kinase and on GSK3β kinase were 0.618 µM and 0.788 µM, respectively.

Take `CN1CCC(NC(=O)c2n[nH]c3ccc(-c4cc(C(F)(F)F)nn4C)cc23)CC1` [Compound 29, 5-(1-Methyl-3-(trifluoromethyl)-1H-pyrazol-5-yl)-N-(1-methylpiperidin-4-yl)-1H-indazole-3-carboxamide]: the EC50 in experiment [1] was more than 10 µM; in experiment [2] it was 9.24 µM; in experiment [3], more than 10 µM. Besides, the IC50 on DYRK1A kinase and on GSK3β kinase was more than 10 µM each time.

Regarding `Cc1ncc(-c2ccc3[nH]nc(C(=O)NC4CCN(CC(C)(C)F)CC4)c3c2)n1C` [Compound 42, 5-(1,2-Dimethyl-1H-imidazol-5-yl)-N-(1-(2-fluoro-2-methylpropyl)piperidin-4-yl)-1H-indazole-3-carboxamide], the half-inhibitory concentration (IC50) at DYRK1A kinase was 0.028 µM; on GSK3β kinase, 0.029 µM.

`C[C@H]1C[C@H](NC(=O)c2n[nH]c3ccc(-c4cnn(C)c4)cc23)CCN1CC(C)(C)F` [Compound 44, N-((2S,4R)-1-(2-fluoro-2-methylpropyl)-2-methylpiperidin-4-yl)-5-(1-methyl-1H-pyrazol-4-yl)-1H-indazole-3-carboxamide]: the IC50 at DYRK1A kinase and at GSK3β kinase was 0.007 µM throughout.

On to `O=C(Nc1ccc(F)cc1)c1n[nH]c2ccc(-c3cnn(C4CNC4)c3)cc12` [Compound 47, 5-(1-(Azetidin-3-yl)-1H-pyrazol-4-yl)-N-(4-fluorophenyl)-1H-indazole-3-carboxamide], for which the EC50 in experiment [1] is 4.58 µM; in experiment [2] it was more than 10 µM; in experiment [3], 5.21 µM. Also, the IC50 at DYRK1A kinase came to 0.19 µM; on GSK3β kinase, 0.674 µM.

For the molecule `O=C(Nc1ccc(F)cc1)c1n[nH]c2ccc(-c3cnc4n3CCNC4)cc12` [Compound 52, N-(4-Fluorophenyl)-5-(5,6,7,8-tetrahydroimidazo[1,2-a]pyrazin-3-yl)-1H-indazole-3-carboxamide], the EC50 in experiment [1] was more than 10 µM. In addition, the IC50 on DYRK1A kinase and on GSK3β kinase was 0.011 µM in each case.

Take `O=C(Nc1ccc(F)cc1)c1n[nH]c2ccc(-c3nnc4n3CCNC4)cc12` [Compound 53, N-(4-Fluorophenyl)-5-(5,6,7,8-tetrahydro-[1,2,4]triazolo[4,3-a]pyrazin-3-yl)-1H-indazole-3-carboxamide]: the half-maximal effective concentration (EC50) in experiment [1] is 1.84 µM; in experiment [2], more than 10 µM; in experiment [3] it was more than 10 µM. Further, the 50% inhibitory concentration (IC50) is 0.027 µM at DYRK1A kinase and 0.001 µM at GSK3β kinase.

As to `O=C(Nc1ccc(OC(F)F)cc1)c1n[nH]c2ccc(-c3cnn(C4CCNCC4F)c3)cc12` (stereo not shown) [Compound 57, N-(4-(Difluoromethoxy)phenyl)-5-(1-(3-fluoropiperidin-4-yl)-1H-pyrazol-4-yl)-1H-indazole-3-carboxamide], the EC50 in experiment [1] amounted to 1.09 µM; in experiment [2] it was 0.57 µM; in experiment [3], 0.597 µM. Further, the IC50 at DYRK1A kinase was determined as 1.05 µM; at GSK3β kinase it was 5.38 µM.

For `CN1CCC(n2cc(-c3ccc4[nH]nc(C(=O)Nc5ccc(OC(F)F)cc5)c4c3)cn2)CC1` [Compound 58, N-(4-(Difluoromethoxy)phenyl)-5-(1-(1-methylpiperidin-4-yl)-1H-pyrazol-4-yl)-1H-indazole-3-carboxamide], the EC50 stood at 1.5 µM in experiment [1], 0.328 µM in experiment [2] and 5.14 µM in experiment [3]. In addition, the IC50 on DYRK1A kinase came out at 0.053 µM; on GSK3β kinase it was 3.02 µM.

For `CC(C)(F)CN1CCC(n2cc(-c3ccc4[nH]nc(C(=O)Nc5ccc(OC(F)F)cc5)c4c3)cn2)CC1` [Compound 61, N-(4-(difluoromethoxy)phenyl)-5-(1-(1-(2-fluoro-2-methylpropyl)piperidin-4-yl)-1H-pyrazol-4-yl)-1H-indazole-3-carboxamide], the EC50 was more than 10 µM in experiment [1], more than 10 µM in experiment [2] and 0.009 µM in experiment [3]. Moreover, the IC50 was determined as 9.94 µM on DYRK1A kinase and 9.37 µM on GSK3β kinase.

Regarding `O=C(Nc1ccc(OC(F)F)cc1)c1n[nH]c2ccc(-c3cnn(C4CCOCC4)c3)cc12` [Compound 62, N-(4-(Difluoromethoxy)phenyl)-5-(1-(tetrahydro-2H-pyran-4-yl)-1H-pyrazol-4-yl)-1H-indazole-3-carboxamide], the EC50 in experiment [1] was 2.28 µM; in experiment [2] it was more than 10 µM; in experiment [3], 3.1 µM. In addition, the IC50 was 3.92 µM on DYRK1A kinase and more than 10 µM at GSK3β kinase.

For `O=C(Nc1ccc(OC(F)F)cc1)c1n[nH]c2ccc(-c3cnc4n3CCNC4)cc12` [Compound 64, N-(4-(Difluoromethoxy)phenyl)-5-(5,6,7,8-tetrahydroimidazo[1,2-a]pyrazin-3-yl)-1H-indazole-3-carboxamide], the EC50 in experiment [1] stood at 0.937 µM; in experiment [2], 1.7 µM; in experiment [3], 1.53 µM. Further, the IC50 on DYRK1A kinase was determined as 0.016 µM; at GSK3β kinase it was 0.021 µM.

For `Cn1cc(-c2cc3c(C(=O)Nc4ccc(CN5CC(F)C5)cc4)n[nH]c3cc2F)cn1` [Compound 67, 6-Fluoro-N-(4-((3-fluoroazetidin-1-yl)methyl)phenyl)-5-(1-methyl-1H-pyrazol-4-yl)-1H-indazole-3-carboxamide], the half-maximal effective concentration (EC50) in experiment [1] was 0.549 µM; in experiment [2], 1 µM; in experiment [3], 0.15 µM. In addition, the concentration for half-maximal inhibition (IC50) turned out to be 0.009 µM on DYRK1A kinase and 0.035 µM on GSK3β kinase.

`Cn1cc(-c2cc3c(C(=O)Nc4ccc(CN5CCC(F)(F)CC5)cc4)n[nH]c3cc2F)cn1` [Compound 76, N-(4-((4,4-Difluoropiperidin-1-yl)methyl)phenyl)-6-fluoro-5-(1-methyl-1H-pyrazol-4-yl)-1H-indazole-3-carboxamide]: the EC50 in experiment [1] was 1.29 µM; in experiment [2] it was 6.2 µM; in experiment [3], 0.174 µM. Besides, the IC50 at DYRK1A kinase stood at 0.107 µM; at GSK3β kinase it was 0.302 µM.
